“Also recorded” adds a separate entry of the source. Read-outs that look alike come from different tables or passages of the source. Marks after values point to notes of the source that are not given here.
Columns and labels:
[1] = tested on: renal transplant recipients; test: Neurocognitive functions (digit vigilance speed, numeric working memory accuracy, picture recognition); assay type: in vivo, human; conditions: up to 3 mg/kg inhaled 1 hour, up to 24 weeks post-treatment
Experimental: FIG. 5, FIG. 6 and FIG. 7 illustrate the impact of carbon monoxide treatment on neurocognitive functions over 6 months in subjects receiving kidney transplants following inhalation of placebo, 0.7 mg/kg, 2 mg/kg or 3 mg/kg carbon monoxide through the evaluation of individual digit vigilance speed (FIG. 5), numeric working memory accuracy (FIG. 6) and picture recognition (FIG. 7). The CO doses were administered either 12-48 hours post-operatively following renal transplant (placebo, 0.7 mg/kg or 2 mg/kg) or intra-operatively during renal transplant surgery (placebo, 2 mg/kg or 3 mg/kg). Visit #1: Screening; Visit #4: Day 0; Visit #6: Day 1; Visit #14-16: Day 28; Visit #17-18: Follow-up Weeks 16-24. The open symbols reflect individual observations, the thin lines reflect individual trends and thick lines reflect the average trend based on linear regression. […]
All renal transplant recipients receiving carbon monoxide up to 3 mg/kg carbon monoxide (both intra-operatively and post-operatively dosed) are evaluated for safety. […] As presented herein, the relationship between carbon monoxide exposure (COHb) and cardiovascular function (i.e., QTc) at 8 hours post-treatment of subjects receiving inhaled carbon monoxide or placebo (FIG. 4) is assessed via a pharmacokinetic-pharmacodynamic (PKPD) approach. […]

[2] = tested on: renal transplant recipients; test: Safety of carbon monoxide dosing regimens (AEs, ECG, QTc); assay type: in vivo, human
Experimental: (§1) Study subjects receive either (i) 12-48 hours post-operatively following renal transplant, a single dose of placebo (i.e., O2 30% in nitrogen) or carbon monoxide (Covox 12 mg/L) at 0.7 mg/kg or 2 mg/kg via inhalation for a time period of 1 hour, or (ii) intra-operatively during renal transplant surgery (at the time of re-anastomosis), a dose of placebo (i.e., O2 30% in nitrogen), 2 mg/kg or 3 mg/kg carbon monoxide via inhalation for a time period of 1 hour.
All renal transplant recipients receiving carbon monoxide up to 3 mg/kg carbon monoxide (both intra-operatively and post-operatively dosed) are evaluated for safety. […] The most sensitive organs to carbon monoxide poisoning are heart and brain. As presented herein, the relationship between carbon monoxide exposure (COHb) and cardiovascular function (i.e., QTc) at 8 hours post-treatment of subjects receiving inhaled carbon monoxide or placebo (FIG. 4) is assessed via a pharmacokinetic-pharmacodynamic (PKPD) approach. Similarly, as presented herein, the relationship between subjects receiving one of various inhaled carbon monoxide doses or placebo and key neurocognitive functions (i.e., individual digit vigilance speed (FIG. 5), numeric working memory accuracy (FIG. 6) and picture recognition (FIG. 7)) up to 24 weeks post-treatment is assessed via a pharmacokinetic-pharmacodynamic (PKPD) approach.

[3] = water at 0° C.; cited from earlier work
[4] = assay type: in vivo, human; conditions: for CL/F, based on net COHb: intra-operative
Experimental: as §1
COHb exposure is measured using conventional methods. For example, COHb exposure can be ascertained by measuring the amount present in venous blood using a device known as a CO-OXI meter. For both post- and intra-operative dosing regimens, dose-dependency of COHb Cmax and AUC is evaluated, the results of which are shown graphically in FIGS. 1A and 1B.

[5] = tested on: renal function of renal transplant recipients; test: Transplanted organ (renal) function: serum creatinine and calculated GFR; assay type: in vivo, human
Experimental: as §1
Organ function is assessed in subjects using pharmacodynamic markers representing renal functions. In particular, serum creatinine (SCr) levels are measured (using conventional methods) and glomerular filtration rate (GFR) is calculated via MDRD (GFR (mL/min/1.73 m2)=175×(Scr)−1.154× (Age)−0.203×(0.742 if female)×(1.212 if African American); as described by Levey et al., “Chronic Kidney Disease Epidemiology Collaboration. Using standardized serum creatinine values in the modification of diet in renal disease study equation for estimating glomerular filtration rate,” Ann Intern Med, 145(4):247-254 (2006)).

SMILES: [C-]#[O+] [carbon monoxide]
- impact on neurocognitive functions [1]: does not have negative impact on neurocognitive functions; also recorded: unlikely to cause QT prolongation and affect neurocognitive functions
- impact on neurocognitive functions ([1]; listed as CO): does not show any negative impact on neurocognitive functions
- QT prolongation (QTc change from baseline versus COHb) ([2]; 8 hours after inhalation, up to 3 mg/kg for 1 hour): does not have an effect on QT prolongation; also recorded: unlikely to cause QT prolongation
- tolerability ([2]; all dose levels up to 3 mg/kg, intra- and post-operatively dosed): well tolerated
- ECG changes ([2]; up to 3 mg/kg): no ECG changes observed on heart rate, PR interval, QRS duration or QTcF duration
- new morphological changes or new infarction potentials ([2]; up to 3 mg/kg): no evidence observed on new morphological changes or new infarction potentials
- incidence of cardiovascular and neurological AEs ([2]; up to 3 mg/kg, versus placebo): comparable between CO and placebo treated subjects
- saturation point [3]: about 0.0044 g CO/100 g medium
- CL/F, based on net COHb ([4]; 2.0 mg/kg, mean (n=6)): 0.0474 mg/kg/(% * h)
- CL/F, based on net COHb ([4]; 3.0 mg/kg, mean (n=5)): 0.0549 mg/kg/(% * h)
- dose-dependency of COHb Cmax and AUC (% COHb/Hb) ([4]; post- and intra-operative regimens, 0.7-3 mg/kg, FIGS. 1A and 1B): increased with an increase in the dose of inhaled carbon monoxide in an approximately proportional manner
- renal function (GFR and Scr) ([5]; given 12-48 hours after the surgery, 0.7 or 2 mg/kg): does not improve renal function
- renal function (GFR and Scr) ([5]; given during surgery (intra-operatively), 2 or 3 mg/kg): improves renal function in a dose-dependent manner
- calculated GFR on Day 1 and Day 2 versus COHb concentration ([5]; intra-operatively treated subjects, FIG. 2 left panel): increased COHb is related to improved renal function (GFR)
- serum creatinine level on Day 2 versus COHb concentration ([5]; intra-operatively treated subjects, FIG. 3 left panel): increased COHb is related to improved renal function (decreased serum creatinine)
- calculated GFR on Day 1 and Day 2 versus COHb concentration ([5]; post-operatively treated subjects, FIG. 2 right panel): increased COHb is not related to the improvement of GFR
- serum creatinine level on Day 2 versus COHb concentration ([5]; post-operatively treated subjects, FIG. 3 right panel): increased COHb did not improve the renal function (increased serum creatinine)

From patent US8778413B2, “Dosing regimens and methods of treatment using carbon monoxide” (Ikaria, Inc., priority 2010, dated 2014)
